US9051339B2, “Sulfur-containing bicyclic compound” (Astellas Pharma Inc., priority 2013, dated 2015)

Biological target: T1, GABAB receptor (Mus musculus, UniProt Q80T41+Q9WV18)
T1 construct: a mouse brain cortex membrane (4 μg); tissue Japan SLC, Inc. (ddY mice); host or cells: mouse brain cortex membrane
Test: [35S]GTPγS binding test for PAM action, mouse brain cortical membrane
Assay type: biochemical
Settings: 100 μM GABA = 100%; for EC50: concentration raising reaction rate from 20% with 0.3 μM GABA to 50%, mouse brain cortex membrane, read-out: Potency (PAM Potency of GABAB)
Protocol: The function of the GABAB receptor of the compound of the present invention was evaluated using a [^35S] GTPγS binding test. This method is used for the detection of the PAM action of the compound on the GABAB receptor (Journal of Pharmacology and Experimental Therapeutics, 2003, vol. 307(1), p. 322-330; and Molecular Pharmacology, 2001, vol. 60(5), p. 963-971).
The mouse brain cortical membrane was prepared with reference to a method for preparing a rat brain membrane (European Journal of Pharmacology, 1990, vol. 187 (1), p. 27-38).
The cortex (about 30 g) was cut out of the brains of 90 ddY mice (Japan SLC, Inc.). An A buffer was added to the cortex (cortex/A buffer=about 1:3 (wt/vol)), and homogenized with a glass Teflon-lined homogenizer (Teflon: registered trademark) on ice. The homogenate was centrifuged (750 g, 10 min, 4° C.) and a supernatant was then obtained. An A buffer (90 mL) was added to pellets and homogenized on ice, and a supernatant (750 g, 10 min, 4° C.) was then obtained. By repeating this operation, the supernatant was collected.
The supernatant was centrifuged (18000 g, 15 min, 4° C.). Ultrapure water (54 mL) was added to the pellets, left to stand for 30 min on ice, and then centrifuged (39000 g, 20 min, 4° C.). The pellets were suspended in a KH buffer (54 mL), repeatedly frozen and thawed, and centrifuged (18000 g, 15 min) at 4° C. The buffer was added to the pellets and then frozen and thawed, and this operation was repeated until the centrifugation. By a Bradford method using a protein assay (Protein assay CBB solution; Nacalai Tesque, Inc.), a KH buffer suspension of the pellet was prepared at a protein concentration of 10 mg/mL.
The PAM action of the GABAB receptor in the mouse brain cortex of a test drug was evaluated. To each of wells of a 96-well microplate, a test drug diluted with a B buffer at each concentration (3 nM to 30 μM), a mouse brain cortex membrane (4 μg), [^35S] GTPγS (final concentration of 0.34 nM, Muromachi Yakuhin Co., Ltd.; Institute of Isotopes Co., Ltd.), GABA (final concentration of 0.3 μM; Sigma) were added in this order, followed by standing at room temperature for 1 hour. With a harvester (Filtermate, Perkin-Elmer, Inc.), the suspension was suction-filtered through a glass filter (UniFilter 96-well GF/B filter plates, Perkin-Elmer, Inc.). The glass filter was washed with a C buffer that had been ice-cooled. After drying the glass filter, a liquid scintillation cocktail (50 μL, MicroScinti-PS; PerkinElmer, Inc.) was added to each well. The amount of [^35S] GTPγS bound to the membrane was measured on a plate reader (TopCount, PerkinElmer, Inc.).
The maximum reaction rate of 100 μM GABA was taken as 100%. […] At a time when the test drug was not added, the concentration of the test drug that increased the reaction rate from 20% with 0.3 μM GABA to 50% was taken as a PAM Potency (μM) of the GABAB of the test drug. In the presence of 0.3 μM GABA, the maximum reaction rate of the effect on the GABAB receptor when the test drug was administered up to maximum 30 μM was taken as a PAM Efficacy (%) of the GABAB of the test drug.
The Potency and Efficacy of several representative Example Compounds of the present invention are shown in Table below (In the Table, Ex represents Example Compound No. The “Potency” represents the PAM Potency of GABAB of the test drug, and the “Efficacy” represents PAM Efficacy (%) of GABAB of the test drug. These shall apply hereinafter).

T1 sequence (Q9WV18 20-960): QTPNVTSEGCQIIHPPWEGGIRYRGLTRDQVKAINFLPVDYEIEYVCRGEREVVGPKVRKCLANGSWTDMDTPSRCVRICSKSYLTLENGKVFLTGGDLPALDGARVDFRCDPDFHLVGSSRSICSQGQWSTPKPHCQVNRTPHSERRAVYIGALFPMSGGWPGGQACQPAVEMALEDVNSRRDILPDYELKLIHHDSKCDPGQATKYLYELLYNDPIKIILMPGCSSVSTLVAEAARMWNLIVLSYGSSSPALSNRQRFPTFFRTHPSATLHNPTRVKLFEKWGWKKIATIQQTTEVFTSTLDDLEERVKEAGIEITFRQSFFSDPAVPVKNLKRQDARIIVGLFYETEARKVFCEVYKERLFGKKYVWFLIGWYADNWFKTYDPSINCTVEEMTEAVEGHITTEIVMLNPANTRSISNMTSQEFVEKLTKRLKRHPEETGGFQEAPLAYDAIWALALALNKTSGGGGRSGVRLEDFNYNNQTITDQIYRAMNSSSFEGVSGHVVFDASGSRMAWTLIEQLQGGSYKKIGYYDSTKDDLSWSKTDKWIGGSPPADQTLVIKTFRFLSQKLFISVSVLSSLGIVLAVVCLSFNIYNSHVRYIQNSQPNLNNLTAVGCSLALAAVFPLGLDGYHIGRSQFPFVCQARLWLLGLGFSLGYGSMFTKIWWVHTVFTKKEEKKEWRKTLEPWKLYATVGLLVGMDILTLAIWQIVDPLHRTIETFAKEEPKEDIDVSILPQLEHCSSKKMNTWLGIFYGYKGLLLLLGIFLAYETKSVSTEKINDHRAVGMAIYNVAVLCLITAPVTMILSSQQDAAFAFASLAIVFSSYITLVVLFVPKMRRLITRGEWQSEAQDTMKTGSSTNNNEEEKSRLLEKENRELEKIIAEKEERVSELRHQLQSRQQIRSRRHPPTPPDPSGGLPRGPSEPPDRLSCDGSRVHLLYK
T1 sequence (Q80T41 41-940): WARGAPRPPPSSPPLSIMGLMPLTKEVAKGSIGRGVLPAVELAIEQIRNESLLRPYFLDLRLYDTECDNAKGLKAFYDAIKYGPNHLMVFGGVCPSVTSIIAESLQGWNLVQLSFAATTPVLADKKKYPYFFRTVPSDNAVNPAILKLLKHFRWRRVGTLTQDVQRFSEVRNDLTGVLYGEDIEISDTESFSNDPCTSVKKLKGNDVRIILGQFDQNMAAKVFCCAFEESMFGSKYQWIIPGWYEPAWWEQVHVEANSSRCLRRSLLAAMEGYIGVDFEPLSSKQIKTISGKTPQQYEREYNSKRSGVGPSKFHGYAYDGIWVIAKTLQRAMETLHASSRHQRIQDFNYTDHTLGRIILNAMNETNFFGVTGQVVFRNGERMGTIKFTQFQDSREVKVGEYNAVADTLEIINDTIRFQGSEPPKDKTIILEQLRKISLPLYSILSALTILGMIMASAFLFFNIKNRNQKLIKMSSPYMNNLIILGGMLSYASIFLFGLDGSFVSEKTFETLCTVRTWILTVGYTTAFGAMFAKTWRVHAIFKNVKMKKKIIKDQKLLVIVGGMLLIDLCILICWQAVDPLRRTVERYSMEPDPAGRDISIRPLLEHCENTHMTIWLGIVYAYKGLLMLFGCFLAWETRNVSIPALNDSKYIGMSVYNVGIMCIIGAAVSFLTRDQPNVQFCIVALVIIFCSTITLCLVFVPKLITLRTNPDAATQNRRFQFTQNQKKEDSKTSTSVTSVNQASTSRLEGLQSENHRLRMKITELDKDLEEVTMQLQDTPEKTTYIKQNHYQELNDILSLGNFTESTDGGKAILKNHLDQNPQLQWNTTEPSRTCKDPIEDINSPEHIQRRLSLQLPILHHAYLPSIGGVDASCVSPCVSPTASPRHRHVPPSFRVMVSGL

EC50 | Efficacy (PAM Efficacy of GABAB) (maximum reaction rate in presence of 0.3 μM GABA, test drug up to 30 μM) | Emax (maximum reaction rate in presence of 0.3 μM GABA, test drug up to 30 μM, read-out: Efficacy (PAM Efficacy of GABAB)) | Compound
110 nM | 300% |  | Cc1nc(CN2CC[C@@H](O)[C@H](O)C2)c2cc(C3CCC(C)(C)CC3)sc2n1 (single isomer, unassigned) [Ex31, trans-1-{[6-(4,4-dimethylcyclohexyl)-2-methylthieno[2,3-d]pyrimidin-4-yl]methyl}piperidine-3,4-diol]
110 nM |  | 207% | Cc1nc(CN2CCS(=O)(=O)CC2)c2cc(C3CCC(C)(C)CC3)sc2n1 [Ex2, 6-(4,4-dimethylcyclohexyl)-4-[(1,1-dioxidothiomorpholin-4-yl)methyl]-2-methylthieno[2,3-d]pyrimidine]
